Experimental data: PMC9732821, “Neurotrophic Activity and Its Modulation by Zinc Ion of a Dimeric Peptide Mimicking the Brain-Derived Neurotrophic Factor N-Terminal Region” (ACS Chemical Neuroscience, 2022)

B1: brain-derived neurotrophic factor (protein, UniProt P23560 1-247, looked up)
chain: MTILFLTMVISYFGCMKAAPMKEANIRGQGGLAYPGVRTHGTLESVNGPKAGSRGLTSLADTFEHVIEELLDEDQKVRPNEENNKDADLYTSRVMLSSQVPLEPPLLFLLEEYKNYLDAANMSMRVRRHSDPARRGELSVCDSISEWVTAADKKTAVDMSGGTVTVLEKVPVSKGQLKQYFYETKCNPMGYTKEGCRGIDKRHWNSQCRTTQSYVRALTMDSKKRIGWRFIRIDTSCVCTLTIKRGR
modifications: full-length
notes: full-length human BDNF produced recombinantly in Escherichia coli

How the values were obtained:
AKT = AKT phosphorylation, in cell ELISA in differentiated SH-SY5Y cells; format: cell-based, human; conditions: 10 min; 150 ng/mL BDNF or 10 μM peptide; three independent replicas in duplicate
Procedure: ERK and AKT phosphorylation were assessed in a 96-well plate format, performing an in cell ELISA assay as previously described 4. SH-SY5Y or HEK 293T cells were seeded at a density of 5.000 and 80.000 cell/well in 96 multiwell respectively, and the former were differentiated as describe above.
Cells were treated as described for TrkB phosphorylation or reported in the graphs, then washed with 0.1% Triton X-100 in PBS and fixed with 4% paraformaldehyde. Cells were then permeabilized (1% BSA; 0.1% Triton X-100 in PBS) for 1 hour, at the end, cells were incubated overnight at 4°C with anti-phospho ERK (1:500, sc-7383, Santa Cruz) or phosphor AKT (1:500, sc-16646-R-, Santa Cruz) antibodies. Next day, after the incubation with HRP-conjugated secondary antibody (anti-mouse # 31430, Invitrogen; anti-rabbit A0545, Sigma-Aldrich) the TMB substrate was added and the absorbance was read at 450 nm. Cells were incubated with only the secondary antibody to obtain the aspecific binding (Blanks). The absorbances were normalized to the relative number of cells in each well that was determined using Crystal Violet staining.
SH-SY5Y Immunofluorescence analysis
SH-SY5Y cells were seeded on a 24-well plate (5.000 cell/well) and differentiated with retinoic acid as describe above. Cells were treated for 60’ in an unsupplemented medium with BDNF (150 ng/ml) or d-bdnf (10 µM) alone or in combination. Samples were then fixed (4% PFA, 5% sucrose/PBS, 15 min) and subjected to a non-permeabilizing immunofluorescence assay. Briefly, cells were incubated with the blocking solution (5% BSA/PBS) for 1 h at room temperature and incubated overnight at 4 °C with chicken anti-BDNF (1:100, G164A Promega) antibody diluted in 2.5% BSA/PBS. The next morning samples were incubated with an Alexa568-conjugated anti-chicken secondary antibody (1:500, Thermofisher) in 2.5% BSA/PBS for 2h at room temperature. Coverslips were mounted with Fluoroshield-DAPI (Sigma-Aldrich) and imaged with a laser scanning confocal microscope (Nikon A1, Eclipse Ti), using a 60× oil objective (NA 1 .40) and pinhole set to 1 AU. Images were acquired […]
nm laser (emission window 545-645 nm). BDNF fluorescence intensity was analysed using FIJI ImageJ software. Briefly, the background intensity was subtracted from all red channel fields and an image threshold was applied to calculate the mean fluorescence intensity of the cells only. Results shown constitute the pool of fields stemming from two replicates.
ReNCell cell culture, differentiation and immunofluorescence analysis

human TrkB = test: TrkB phosphorylation, immunoprecipitation and western blot in SH-SY5Y cells transfected with hTrkB-EGFP; format: cell-based; conditions: 10 μM peptide, 10 min stimulation, normalized to ctrl; four replicas (peptides); one-way ANOVA with Bonferroni
Description: The possibility of mimicking the function of the full-length BDNF protein by using a linear peptide fragment encompassing the first 12 amino acids of the mature NT N-terminal was already postulated.[31] Here, we named this sequence as m-bdnf (Figure 1A) and performed a systematic comparison between the performance of the full-length human BDNF produced recombinantly in Escherichia coli([32]) and (i) m-bdnf, (ii) a dimeric peptide displaying two copies of the m-bdnf sequence covalently bound by a disulfide bridge (d-bdnf), and (iii) a monomeric peptide displaying the scrambled sequence of m-bdnf (s-bdnf). We first investigated the ability of these peptides to activate the TrkB receptor. To this purpose, we expressed a recombinant GFP fusion of human TrkB (Figure 1A) in SH-SY5Y cells. Then, cells were stimulated with BDNF or the related peptides. […] Then, the same cell-based assays for ERK phosphorylation were used to better elucidate the agonist properties of d-bdnf (Figure 1D). […] Specifically, an EC50 concentration of BDNF (1 nM) or of d-bdnf (10 μM) was used in combination with the increasing concentration of d-bdnf and BDNF, respectively, and the increase of ERK phosphorylation was assessed. […] Of note, we also performed a non-permeabilizing immunofluorescence analysis to quantify the membrane-bound BDNF in differentiated SH-SY5Y cells in the absence or presence of BDNF and d-bdnf (Figure S1C,D). […] The same increment was not observed upon treatment with the d-bdnf peptide, while instead we measured a slight (∼18%) decrease of the signal possibly due to the ability of the peptide to displace endogenous BDNF at the tested dose (10 μM). […]
Figure 1 Activation of the TrkB receptor by BDNF and its mimetic peptide ligands. […] (C) Scatter dot plot of ERK (left) and AKT (right) phosphorylation levels detected in differentiated SH-SY5Y cells, after stimulation with the same treatments as in (B). […] (G) Bar graph of mean ± SD ‘B-1’ values retrieved from N&B analysis for all the different conditions measured. […]

| Molecule | AKT phosphorylation increase vs unstimulated control (AKT) | TrkB phosphorylation (p-Tyr/TrkB band density) (human TrkB) |
| --- | --- | --- |
| HSDPARRGELSV-NH2 [m-bdnf, linear peptide fragment encompassing the first 12 amino acids of the mature NT N-terminal] | only BDNF and d-bdnf were able to induce a significant ERK and AKT phosphorylation increase | only d-bdnf was able to promote a significant TrkB phosphorylation |
| SRAGPHLRDVSE-NH2 [s-bdnf] | only BDNF and d-bdnf were able to induce a significant ERK and AKT phosphorylation increase | only d-bdnf was able to promote a significant TrkB phosphorylation |
| HSDPARRGELSVC-C-VSLEGRRAPDSH (disulfide) [d-bdnf] | significant ERK and AKT phosphorylation increase | significant TrkB phosphorylation (p < 0.05) |
| B1 | significant ERK and AKT phosphorylation increase |  |
